For one data set, the target named is GSK3β (Homo sapiens, UniProt P49841). Nature of the data set: Inhibitory activity against GSK3β (33P-ATP phosphorylation of prephosphorylated GS1 peptide). The format is biochemical. The conditions noted are these: protocol 4: commercial GSK3beta (Millipore), 7.5 μM GS1 peptide, 10 μM ATP, 90 minutes at room temperature. The procedure:
Inhibitory Activity of the Medicament of the Present Invention Against GSK3β Four different protocols can be used. In a first protocol: 7.5 μM of prephosphorylated GS1 peptide and 10 μM ATP (containing 300,000 cpm of ^33P-ATP) were incubated in 25 mM Tris-HCl, pH 7.5, 0.6 mM DTT, 6 mM MgCl2, 0.6 mM EGTA, 0.05 mg/ml BSA buffer for 1 hour at room temperature in the presence of GSK3beta (total reaction volume: 100 microliters). In a second protocol: 4.1 μM of prephosphorylated GS1 peptide and 42 μM ATP (containing 260,000 cpm ^33P-ATP) were incubated in 80 mM Mes-NaOH, pH 6.5, 1 mM Mg acetate, 0.5 mM EGTA, 5 mM 2-mercaptoethanol, 0.02% Tween 20, 10% glycerol buffer for 2 hours at room temperature in the presence of GSK3beta. In a third protocol: 7.5 μM of prephosphorylated GS1 peptide and 10 μM ATP (containing 300,000 cpm of ^33P-ATP) were incubated in 50 mM Hepes, pH 7.2, 1 mM DTT, 1 mM MgCl2, 1 mM EGTA, 0.01% Tween 20 buffer for one hour at room temperature in the presence of GSK3beta (total reaction volume: 100 microliters). In a fourth protocol: 7.5 μM of prephosphorylated GS1 peptide and 10 μM ATP (containing 300,000 cpm of ^33P-ATP) were incubated in 50 mM Hepes, pH 7.2, 1 mM DTT, 1 mM MgCl2, 1 mM EGTA, 0.01% Tween 20 buffer for 90 minutes at room temperature in the presence of commercial GSK3beta (Millipore) (total reaction volume: 100 microliters). Inhibitors were solubilised in DMSO (final solvent concentration in the reaction medium, 1%). The reaction was stopped with 100 microliters of a solution made of 25 g polyphosphoric acid (85% P2O5), 126 ml 85% H3PO4, H2O to 500 ml and then diluted to 1:100 before use. An aliquot of the reaction mixture was then transferred to Whatman P81 cation exchange filters and rinsed with the solution described above. Incorporated ^33P radioactivity was determined by liquid scintillation spectrometry. The phosphorylated GS-1 peptide had the following sequence: NH2-[…](P)EDEE-COOH. (Woodgett, J. R. (1989) Analytical Biochemistry 180, 237-241.

Counter-ions that a name gives are not always drawn.

Sequence of GSK3β (P49841 whole entry): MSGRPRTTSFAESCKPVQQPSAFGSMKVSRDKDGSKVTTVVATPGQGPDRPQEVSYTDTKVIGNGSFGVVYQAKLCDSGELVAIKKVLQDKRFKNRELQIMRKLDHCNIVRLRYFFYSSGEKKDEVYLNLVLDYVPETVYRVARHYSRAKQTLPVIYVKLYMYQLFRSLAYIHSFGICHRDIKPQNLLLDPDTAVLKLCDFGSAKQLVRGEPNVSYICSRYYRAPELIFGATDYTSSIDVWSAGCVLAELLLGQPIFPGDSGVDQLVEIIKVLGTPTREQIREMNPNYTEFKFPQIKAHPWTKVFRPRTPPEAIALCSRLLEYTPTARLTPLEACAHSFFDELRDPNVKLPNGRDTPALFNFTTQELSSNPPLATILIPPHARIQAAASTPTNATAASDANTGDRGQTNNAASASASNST

As a reminder, the melting point is the temperature, or range, at which the solid turns liquid. As to `COc1cc(Cl)ccc1C(=O)NC1CN(C2CCCC2)CCn2c1nc(-c1ccncn1)cc2=O` (racemic) (as salt: HCl) [compound 7, (+/−)-4-Chloro-N-(7-cyclopentyl-4-oxo-2-pyrimidin-4-yl-4,5,6,7,8,9-hexahydro-1,4a,7-triaza-benzocyclohepten-9-yl)-2-methoxy-benzamide], the melting point is 243 to 245 °C.
The term IC50 denotes the concentration that inhibits the measured activity by half. With `COc1cc(Cl)ccc1C(=O)NC1CN(C2CCCC2)CCn2c1nc(-c1ccncn1)cc2=O` (racemic) [compound 7, (+/−)-4-Chloro-N-(7-cyclopentyl-4-oxo-2-pyrimidin-4-yl-4,5,6,7,8,9-hexahydro-1,4a,7-triaza-benzocyclohepten-9-yl)-2-methoxy-benzamide], it took 46 nM to reach half-maximal inhibition against GSK3β (IC50).
`CCOC(=O)N1CCn2c(nc(-c3ccncn3)cc2=O)C(NC(=O)c2ccccc2OC)C1` (racemic) [compound 21, (+/−)-9-(2-Methoxy-benzoylamino)-4-oxo-2-pyrimidin-4-yl-5,6,8,9-tetrahydro-4H-1,4a,7-triaza-benzocycloheptene-7-carboxylic acid ethyl ester]: the melting point lay in the range of 182 to 184 °C. For the same compound, the IC50 against GSK3β amounted to 5 nM.
The matching figures for `CCOC(=O)N1CCn2c(nc(-c3ccncc3)cc2=O)C(NC(=O)c2ccc(F)cc2OC)C1` (racemic) [compound 35, (+/−)-9-(4-Fluoro-2-methoxy-benzoylamino)-4-oxo-2-pyridin-4-yl-5,6,8,9-tetrahydro-4H-1,4a,7-triaza-benzocycloheptene-7-carboxylic acid ethyl ester]: 210 to 212 °C and 12 nM.
Compound `COc1cc(Cl)ccc1C(=O)NC1CNCCn2c1nc(-c1ccncn1)cc2=O` (single isomer, unassigned; (+)) [Compound No. 12, (+)-4-Chloro-2-methoxy-N-(4-oxo-2-pyrimidin-4-yl-4,5,6,7,8,9-hexahydro-1,4a,7-triaza-benzocyclohepten-9-yl)-benzamide] had a melting point of 240 to 242 °C. Besides, inhibition against GSK3β was half-maximal at 0.3 nM (IC50).

For the origin of these results see patent US8507476B2, “Substituted arylamide diazepinopyrimidone derivatives” (Sanofi, priority 2008, dated 2013).
